Measured values from US7169813B2, “4-oxo-fenretinide, administered alone and in combination with fenretinide, as preventive and therapeutic agent for cancer” (Fondazione IRCCS “Istituto Nazionale Dei Tumori”, priority 2004, dated 2007).
Where “and” joins values, the source holds several entries; their conditions need not be identical. Identical values can stand only once. Like-named read-outs stand apart in the source and are kept apart here.

Key:
[1] = test system: A2780/HPR; test: Growth inhibition (sulforhodamine B assay), single agents and combination; format: cell-based, human; settings: for Survival (% control cells): single experiments
Description: (§1) The following human ovarian carcinoma cell lines were tested: A2780 was obtained from Dr. R. F. Ozols (National Cancer Institute, Bethesda, Md., USA); IGROV-1 was obtained from Dr. J. Benard (Villejuif, France); OVCA432 was obtained from Dr. R. C. Knapp (Boston, Mass., USA); OAW42 and SKOV-3 were purchased from ATCC (Rockville, Md., USA). A2780/HPR, a 4-HPR— resistant ovarian carcinoma cell line, was obtained in our laboratory by continuous exposure of A2780 cells to increasing concentrations of 4-EPR as previously described (Appierto et al., Br. J. Cancer, 2001, 84:1528–1534; Prinetti et al., J. Biol. Chem., 2003, 278:5574–5583). Briefly, cells surviving 60 transplants in 4-HPR —containing medium (3 transplants at 1 μM, 11 transplants at 2 μM, 8 transplants at 3 μM, and 38 transplants at 5 μM) were cloned by limiting dilution. […] Therefore, A2780/HPR cells were continuously maintained in 5 μM 4-HPR and seeded without 4-HPR in all the experiments performed to test their sensitivity to 4-oxo-4-HPR.
(§2) The following human breast tumor cell lines, obtained from Dr. R. Sutherland (Garvan Institute, Sydney, Australia) were tested: T-47D, BT-20 and MCF-7. The following human neuroblastoma cell lines, purchased from ATCC, were tested: SK-N-BE, SK-N-SH, SK-N-MC, and GI-LI-N. All cell lines were grown in monolayer, in medium containing 10% fetal bovine serum (Invitrogen) in 5% CO2 at 37° C. The medium for A2780, A2780/HPR, IGROV-1, OVCA432, SKOV-3, T-47D, BT-20, MCF-7, GI-LI-N and SK-N-BE cells was RPMI 1640 (Cambrex, Verviers, Belgium) and the medium for OAW42, SK-N-MC and SK-N-SH cells was EMEM (ATCC).
(§3) For the growth inhibition assays, cells were seeded at a density of 3500 cells per well in 96 cluster tissue culture plates, and treated 24 hr after seeding with different concentrations of 4-oxo-4-HPR or 4-HPR. 4-oxo-4-HPR was dissolved in absolute ethanol and 4-HPR (obtained from Dr. J. A. Crowell —NCI Bethesda, Md., USA) was dissolved in Me2SO. […] Control cultures received the same amount of ethanol or Me2SO as the treated cultures. 72 hr after treatment cell number was estimated by using the sulforhodamine B assay according to Monks et al., (J. Natl. Cancer, 1991, 11: 757–766). The survival of treated cells was calculated for the various drug concentrations as percentage of the survival of control cells. The antiproliferative activity of 4-oxo-4-HPR and 4-HPR in each cell line, was tested in three separate experiments and the average values ±SD are reported in FIGS. 2, 3, and 4.
(§4) The antiproliferative effect of the combination of the two drugs, administered at one single dose, was also tested in other ovarian carcinoma cell lines and in breast tumor cell lines. The type of interaction between 4-HPR and 4-oxo-4-HPR was assessed by the method of Drevinko et al., as described in Cancer Biochem. Biophys., 1976, 1:187–195. For this evaluation the drugs were assumed to provide independent effects. The combination index (CI) was calculated as follows: survival fraction (SF) of the combination of 4-HPR+4-oxo-4-HPR divided by (SF 4-HPR×SF 4-oxo-4-HPR). The results for CI are defined as follows: CI=1 indicates an additive effect, CI<1 indicates a supra-additive effect and CI>1 indicates a sub-additive effect.

[2] = test system: IGROV-1; test: as above; format: cell-based, human
Description: as §1, §2, §3, §4

[3] = test system: OVCA432; test: as above; format: cell-based, human
Description: as §1, §2, §3, §4

[4] = test system: OAW42; test: Growth inhibition (sulforhodamine B assay); format: cell-based; settings: Homo sapiens, read-out: 50% Inhibitory Concentrations (IC50) at 72 h
Description: as §1, §2, §3

[5] = test system: SKOV-3; test: Growth inhibition (sulforhodamine B assay); format: cell-based; settings: Homo sapiens, read-out: 50% Inhibitory Concentrations (IC50) at 72 h
Description: as §1, §2, §3

[6] = test system: BT-20; test: Growth inhibition (sulforhodamine B assay), single agents and combination; format: cell-based, human
Description: as §2, §3, §4

[7] = test system: MCF-7; test: as above; format: cell-based, human; settings: for IC50: Homo sapiens, read-out: 50% Inhibitory Concentrations (IC50) at 72 h; for Survival (% control cells): single agent 1 μM
Description: as §2, §3, §4

[8] = test system: T-47D; test: as above; format: cell-based, human; settings: for IC50: Homo sapiens, T47D, read-out: 50% Inhibitory Concentrations (IC50) at 72 h; for IC50 / Survival (% control cells): 72 h; for Survival (% control cells): single agent 1 μM
Description: as §2, §3, §4

[9] = test system: GI-LI-N; test: Growth inhibition (sulforhodamine B assay); format: cell-based, human; settings: for IC50: Homo sapiens, 72 h, read-out: 50% Inhibitory Concentrations (IC50) at 72 h
Description: as §2, §3

[10] = test system: SK-N-BE; test: Growth inhibition (sulforhodamine B assay); format: cell-based, human; settings: for IC50: Homo sapiens, 72 h, read-out: 50% Inhibitory Concentrations (IC50) at 72 h
Description: as §2, §3

[11] = test system: SK-N-MC; test: Growth inhibition (sulforhodamine B assay); format: cell-based, human; settings: for IC50: Homo sapiens, 72 h, read-out: 50% Inhibitory Concentrations (IC50) at 72 h
Description: as §2, §3

[12] = test system: SK-N-SH; test: Growth inhibition (sulforhodamine B assay); format: cell-based, human; settings: for IC50: Homo sapiens, 72 h, read-out: 50% Inhibitory Concentrations (IC50) at 72 h
Description: as §2, §3

[13] = test system: SW626; test: Antiproliferative effect, single agents and combination; format: cell-based, human; settings: single agent 1 μM, 72 h, single experiments
Description: as §3
as §4, with “For this evaluation the drugs were assumed to provide independent effects.” left out, “The results for CI are defined as follows: CI=1 indicates an additive effect, CI<1 indicates a supra-additive effect and CI>1 indicates a sub-additive effect.” left out

[14] = IGROV-1; single agent 1 μM; 72 h; single experiments
[15] = OVCA432; single agent 1 μM; 72 h; single experiments

With `CC1=C(/C=C/C(C)=C/C=C/C(C)=C/C(=O)Nc2ccc(O)cc2)C(C)(C)CCC1` [4-HPR, N-(4-hydroxyphenyl)retinamide, reference compound] the “Survival (% control cells)” value ([1]; A2780/HPR, 4-HPR 5 μM, 72 h) was 81 % control cells and 89 % control cells, the IC50 ([1]; Homo sapiens, A2780/HPR (4-HPR-resistant), 72 h, read-out: 50% Inhibitory Concentrations (IC50) at 72 h) was 8000 nM and the IC50 ([2]; Homo sapiens; IGROV-1; 72 h; read-out: 50% Inhibitory Concentrations (IC50) at 72 h) was 5000 nM. For the same compound, the “Survival (% control cells)” value [2, 14] was 97 % control cells and 91 % control cells, the IC50 ([3]; Homo sapiens; OVCA432; 72 h; read-out: 50% Inhibitory Concentrations (IC50) at 72 h) was 8000 nM and the “Survival (% control cells)” value [3, 15] was 115 % control cells and 105 % control cells. For the same compound, the IC50 ([4]; OAW-42, OAW42, 72 h) was 10000 nM, the IC50 ([5]; SK-OV-3, SKOV-3, 72 h) was 8000 nM and the “Survival (% control cells)” value ([6]; BT-20; single agent 1 μM; 72 h) was 89 % control cells. The IC50 ([6]; Homo sapiens; BT-20; 72 h; read-out: 50% Inhibitory Concentrations (IC50) at 72 h) was 7000 nM, the IC50 ([7]; MCF7, MCF-7, 72 h) was 3000 nM and the “Survival (% control cells)” value ([7]; MCF-7, 72 h) was 86 % control cells. For the same compound, the IC50 ([8]; T-47D) was 4000 nM, the “Survival (% control cells)” value ([8]; T-47D) was 90 % control cells and the IC50 ([9]; GI-LI-N) was 700 nM. For the same compound, the IC50 ([10]; SK-N-BE) was 5000 nM, the IC50 [11] was 700 nM and the IC50 [12] was 5000 nM. The “Survival (% control cells)” value [13] was 96 % control cells and 98 % control cells.
`CC1=C(/C=C/C(C)=C/C=C/C(C)=C/C(=O)Nc2ccc(O)cc2)C(C)(C)CCC1=O` [4-oxo-4-HPR, 4-oxo-N-(4-hydroxyphenyl)retinamide] was tested, and the “Survival (% control cells)” value ([1]; A2780/HPR, 4-oxo-4-HPR 0.3 μM, 72 h) was 96 % control cells and 84 % control cells and 71 % control cells, the “tumor cell survival (FIG. 2), in words” value ([1]; A2780/HPR, 72 hr, 0.3 to 10 μM) was “highly effective” and the IC50 ([2]; Homo sapiens, IGROV-1, 72 h, read-out: 50% Inhibitory Concentrations (IC50) at 72 h) was 2000 nM. The “Survival (% control cells)” value [2, 14] was 96 % control cells and 76 % control cells, the IC50 ([3]; Homo sapiens, OVCA432, 72 h, read-out: 50% Inhibitory Concentrations (IC50) at 72 h) was 2500 nM and the “Survival (% control cells)” value [3, 15] was 98 % control cells and 102 % control cells. For the same compound, the IC50 ([4]; OAW-42, 72 h) was 3000 nM, the IC50 ([5]; SK-OV-3, 72 h) was 2000 nM and the “tumor cell survival (FIG. 3), compared with 4-HPR, in words” value ([6]; BT-20; 72 hr) was “more potent than 4-HPR”. The “Survival (% control cells)” value ([6]; BT-20; single agent 1 μM; 72 h) was 70 % control cells, the IC50 ([6]; Homo sapiens, BT-20, 72 h, read-out: 50% Inhibitory Concentrations (IC50) at 72 h) was 2000 nM and the IC50 ([7]; MCF7, 72 h) was 1500 nM. For the same compound, the “tumor cell survival (FIG. 3), compared with 4-HPR, in words” value ([7]; MCF-7, 72 hr) was “more potent than 4-HPR”, the “Survival (% control cells)” value ([7]; MCF-7, 72 h) was 56 % control cells and the IC50 [8] was 2500 nM. The “tumor cell survival (FIG. 3), compared with 4-HPR, in words” value ([8]; T-47D, 72 hr) was “similarly effective”, the “Survival (% control cells)” value ([8]; T-47D) was 94 % control cells and the “cell sensitivity (FIG. 4), compared with 4-HPR, in words” value ([9]; GI-LI-N, 72 hr) was “equally sensitive”. For the same compound, the IC50 [9] was 600 nM, the IC50 [10] was 1000 nM and the “cell sensitivity (FIG. 4), compared with 4-HPR, in words” value ([10]; SK-N-BE, 72 hr) was “more sensitive to 4-oxo-HPR than to 4-HPR”. The “cell sensitivity (FIG. 4), compared with 4-HPR, in words” value ([11]; 72 hr) was “more sensitive only at the lowest concentration tested (0.3 μM)”, the IC50 [11] was 400 nM and the “cell sensitivity (FIG. 4), compared with 4-HPR, in words” value ([12]; 72 hr) was “more sensitive to 4-oxo-HPR than to 4-HPR”. For the same compound, the IC50 [12] was 3000 nM and the “Survival (% control cells)” value [13] was 90 % control cells and 98 % control cells.
